Test results published in paper PMC9536293, “Targeting extracellular matrix remodeling sensitizes glioblastoma to ionizing radiation” (Neuro-Oncology Advances, 2022).

B1: recombinant MMP2: Recombinant MMP2 purchased from R&D Systems, used at 10 ng/ml (protein, UniProt P08253 110-660, looked up)
72 kDa type IV collagenase: YNFFPRKPKWDKNQITYRIIGYTPDLDPETVDDAFARAFQVWSDVTPLRFSRIHDGEADIMINFGRWEHGDGYPFDGKDGLLAHAFAPGTGVGGDSHFDDDELWTLGEGQVVRVKYGNADGEYCKFPFLFNGKEYNSCTDTGRSDGFLWCSTTYNFEKDGKYGFCPHEALFTMGGNAEGQPCKFPFRFQGTSYDSCTTEGRTDGYRWCGTTEDYDRDKKYGFCPETAMSTVGGNSEGAPCVFPFTFLGNKYESCTSAGRSDGKMWCATTANYDDDRKWGFCPDQGYSLFLVAAHEFGHAMGLEHSQDPGALMAPIYTYTKNFRLSQDDIKGIQELYGASPDIDLGTGPTPTLGPVTPEICKQDIVFDGIAQIRGEIFFFKDRFIWRTVTPRDKPMGPLLVATFWPELPEKIDAVYEAPQEEKAVFFAGNEYWIYSASTLERGYPKPLTSLGLPPDVQRVDAAFNWSKNKKTYIFAGDKFWRYNEVKKKMDPGFPKLIADAWNAIPDNLDAVVDLQGGGHSYFFKGAYYLKLENQSLKSVKFGSIKSDWLGC

Assays:
Glioblastoma (GBM) = tested on: Glioblastoma (GBM); parameters: method as in PMID 32478924; details: added to radiotherapy; GBM patients; on average; cited from earlier work
913-GSCs = experiment: Invasion through a Matrigel/HA matrix (XCELLigence); type: cell-based, human; details: shMT1-MMP 913-GSCs; 10 ng/ml
Method: XCELLigence.—Invasion was performed as per the manufacturer’s instructions. Briefly, 10^4 913-GSCs and GBM1 cells were plated on top of uncoated or 0.4% Growth Factor Reduced Matrigel/10 µg/ml hyaluronic acid (HA) coated wells (CIM plate 16). HA was used as it is a major component of brain ECM. Cells were left at room temperature for 30 min to settle and then the plates were placed into an xCELLigence RTCA DP instrument (ACEA Bioscience). Measurements were taken every 15 min for 48 h or up to 6 days. Cell Index (CI) curves normalized to initial seeding were recorded. 3D Decellularized Brain matrix: 10^4 913-GSC cells were embedded in a 3D decellularized mouse brain matrix, derived as in,[16],[17] which retains the architecture and major components of brain ECM. Briefly, Nu/nu mouse brains were cut into small pieces and submerged in decellularizing solution [0.1% (v/v) ammonium hydroxide (Sigma) and 1% (v/v) Triton X-100 (Sigma) in distilled water] for 2 days. After washing in distilled water, the derived ECM was digested with pepsin (1 mg/ml; Sigma) in HCl (0.01 N) for 2 days at room temperature until visible ECM particle disappeared. To make hydrogels, the ECM solution was mixed with 10 × PBS, dilute to the desired final concentration (20 mg/ml) with ice-cold distilled water and adjust to pH7 by NaOH (1 M). […] Invadopodia length was measured and quantified with ImageJ.

Molecule	increase in survival compared to radiotherapy alone (Glioblastoma (GBM))	invasion of MT1-MMP depleted cells through Matrigel/HA matrix (913-GSCs)
Cn1nnc2c(C(N)=O)ncn2c1=O [TMZ, temozolomide]	2.5 months	
B1		restored the cells invasive capacity to the levels of controls
